Test results as given in PubChem BioAssay (NCI).
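The concentration for 50% growth inhibition is given as GI50. Definition used: TGI = concentration required for complete inhibition of growth.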

Legend:
Assay in all cases: growth of human tumour cells (NCI), 384-well format
[1] = system: MDA-MB-231 breast
[2] = system: SN12C renal
[3] = system: NCI-H460 NSCLC
[4] = system: MOLT-4 leukemia
[5] = system: NCI-H522 lung
[6] = system: A549 NSCLC
[7] = system: IGROV1 ovarian
[8] = system: NCI/ADR-RES ovarian
[9] = system: SF-268 CNS
[10] = system: OVCAR-5 ovarian
[11] = system: MDA-MB-435 melanoma
[12] = system: KM12 colon
[13] = system: NCI-H226 lung
[14] = system: OVCAR-4 ovarian
[15] = system: HOP-92 NSCLC
[16] = system: HS 578T breast
[17] = system: UACC-257 melanoma
[18] = system: BT-549 breast
[19] = system: NCI-H23 lung
[20] = system: MDA-MB-468 breast
[21] = system: SK-OV-3 ovarian
[22] = system: PC-3 prostate
[23] = system: U251 glioblastoma
[24] = system: LOX IMVI melanoma
[25] = system: HCC-2998 colon
[26] = system: M14 melanoma
[27] = system: SF-539 CNS
[28] = system: RPMI-8226 leukemia
[29] = system: UACC-62 melanoma
[30] = system: HT29 colon
[31] = system: COLO 205 colon
[32] = system: SNB-19 CNS
[33] = system: SF-295 CNS
[34] = system: ACHN renal
[35] = system: CAKI-1 renal
[36] = system: OVCAR-8 ovarian
[37] = system: SR leukemia
[38] = system: TK-10 renal
[39] = system: HL-60(TB) leukemia
[40] = system: RXF 393 renal
[41] = system: OVCAR-3 ovarian
[42] = system: MALME-3M melanoma
[43] = system: NCI-H322M lung
[44] = system: EKVX NSCLC
[45] = system: HCT-15 colon
[46] = system: DU-145 prostate
[47] = system: SK-MEL-28 melanoma
[48] = system: HOP-62 NSCLC
[49] = system: SNB-75 CNS
[50] = system: MCF7 breast
[51] = system: SK-MEL-5 melanoma
[52] = system: T-47D breast
[53] = system: A498 renal
[54] = system: HCT-116 colon

Compound: NC(=O)c1cnc(N[C@@H]2CCCC[C@@H]2N)nc1Nc1cccc(-n2nccn2)c1
- GI50 [1]: 1150 nM
- TGI [1]: 3770 nM
- GI50 [2]: 178 nM
- TGI [2]: 1630 nM
- GI50 [3]: 1410 nM
- TGI [3]: 2770 nM
- GI50 [4]: 1140 nM
- TGI [4]: 2370 nM
- GI50 [5]: 274 nM
- TGI [5]: 1590 nM
- GI50 [6]: 1310 nM
- TGI [6]: 2700 nM
- GI50 [7]: 631 nM
- TGI [7]: 2290 nM
- GI50 [8]: 9300 nM
- TGI [8]: 21500 nM
- GI50 [9]: 1560 nM
- TGI [9]: 3110 nM
- GI50 [10]: 769 nM
- TGI [10]: 2340 nM
- GI50 [11]: 571 nM
- TGI [11]: 1920 nM
- GI50 [12]: 410 nM
- TGI [12]: 1690 nM
- GI50 [13]: 1210 nM
- TGI [13]: 2510 nM
- GI50 [14]: 236 nM
- TGI [14]: 1980 nM
- GI50 [15]: 1270 nM
- TGI [15]: 2980 nM
- GI50 [16]: 1080 nM
- TGI [16]: 2320 nM
- GI50 [17]: 1100 nM
- TGI [17]: 2300 nM
- GI50 [18]: 848 nM
- TGI [18]: 2110 nM
- GI50 [19]: 801 nM
- TGI [19]: 2150 nM
- GI50 [20]: 1440 nM
- TGI [20]: 2810 nM
- GI50 [21]: 623 nM
- TGI [21]: 2820 nM
- GI50 [22]: 617 nM
- TGI [22]: 2430 nM
- GI50 [23]: 1390 nM
- TGI [23]: 2750 nM
- GI50 [24]: 372 nM
- TGI [24]: 1450 nM
- GI50 [25]: 415 nM
- TGI [25]: 1850 nM
- GI50 [26]: 714 nM
- TGI [26]: 2030 nM
- GI50 [27]: 1290 nM
- TGI [27]: 2590 nM
- GI50 [28]: 227 nM
- TGI [28]: 1350 nM
- GI50 [29]: 305 nM
- TGI [29]: 1810 nM
- GI50 [30]: 502 nM
- TGI [30]: 1980 nM
- GI50 [31]: 761 nM
- TGI [31]: 2060 nM
- GI50 [32]: 1310 nM
- TGI [32]: 4000 nM
- GI50 [33]: 1650 nM
- TGI [33]: 3060 nM
- GI50 [34]: 1280 nM
- TGI [34]: 2570 nM
- GI50 [35]: 473 nM
- TGI [35]: 1830 nM
- GI50 [36]: 1140 nM
- TGI [36]: 2410 nM
- GI50 [37]: 183 nM
- TGI [37]: 1470 nM
- GI50 [38]: 438 nM
- TGI [38]: 1840 nM
- GI50 [39]: 12.6 nM
- TGI [39]: 153 nM
- GI50 [40]: 1510 nM
- TGI [40]: 2910 nM
- GI50 [41]: 1020 nM
- TGI [41]: 2300 nM
- GI50 [42]: 1230 nM
- TGI [42]: 2490 nM
- GI50 [43]: 1130 nM
- TGI [43]: 2430 nM
- GI50 [44]: 1420 nM
- TGI [44]: 2920 nM
- GI50 [45]: 1230 nM
- TGI [45]: 2610 nM
- GI50 [46]: 1250 nM
- TGI [46]: 2980 nM
- GI50 [47]: 1380 nM
- TGI [47]: 2690 nM
- GI50 [48]: 462 nM
- TGI [48]: 2060 nM
- GI50 [49]: 1410 nM
- TGI [49]: 3230 nM
- GI50 [50]: 225 nM
- TGI [50]: 1770 nM
- GI50 [51]: 145 nM
- TGI [51]: 1130 nM
- GI50 [52]: 1410 nM
- TGI [52]: 2780 nM
- GI50 [53]: 1040 nM
- TGI [53]: 2260 nM
- GI50 [54]: 1030 nM
- TGI [54]: 2320 nM
